Experimental data: the supplement of paper PMC13207355
Structures can show the parent of a compound that is named as a salt.

What was measured:
Details in all cases: exposure time: 72 h
E13 [1] = patient-derived glioblastoma stem cells of classical subtype; assay: surviving fraction (nuclei count normalised to DMSO); higher = more cells surviving (less toxic)
E21 [2] = patient-derived glioblastoma stem cells of mesenchymal subtype; assay: as above
E28 [3] = patient-derived glioblastoma stem cells of classical subtype; assay: as above
E31 [4] = patient-derived glioblastoma stem cells of proneural subtype; assay: as above
E34 [5] = patient-derived glioblastoma stem cells of proneural subtype; assay: as above
E57 [6] = patient-derived glioblastoma stem cells of mesenchymal subtype; assay: as above
FT3469 [7] = normal neural stem cell line; assay: as above
E13 [8] = assay: phenotypic distance (Euclidean, principal components) from DMSO controls (arbitrary units); higher = stronger morphological change
E21 [9] = assay: as above
E28 [10] = assay: as above
E31 [11] = assay: as above
E34 [12] = assay: as above
E57 [13] = assay: as above
FT3469 [14] = assay: as above
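Throughout, for phenotypic distance (Euclidean, principal components) from DMSO controls: cell Painting imaging in 384-well plates, CellProfiler features reduced to at least 20 principal components, Euclidean distance versus same-plate DMSO vehicle wells (0.1% v/v), median over six images per well.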
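Throughout, for surviving fraction (nuclei count normalised to DMSO): nuclei counted by high-content imaging of Hoechst-stained cells in laminin-coated 384-well plates, relative to 0.1% DMSO vehicle wells, with staurosporine as cell-death control.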

CN[C@@H]1[C@@H](O)[C@@H](O[C@@H]2[C@@H](O)[C@H](O[C@H]3OC(CN)=CC[C@H]3N)[C@@H](N)C[C@H]2N)OC[C@]1(C)O [Sisomicin sulfate]
Details | phenotypic distance | surviving fraction
E13 [1], 4.1 nM | – | 1.01
E13 [1], 12.3 nM | – | 0.994
E13 [1], 37 nM | – | 0.923
E13 [1], 111.1 nM | – | 0.949
E13 [1], 333.3 nM | – | 0.983
E13 [1], 1000 nM | – | 1.1
E13 [1], 3000 nM | – | 0.959
E13 [8], 4.1 nM | 0.369 | –
E13 [8], 12.3 nM | 0.462 | –
E13 [8], 37 nM | 0.472 | –
E13 [8], 111.1 nM | 0.486 | –
E13 [8], 333.3 nM | 0.393 | –
E13 [8], 1000 nM | 0.501 | –
E13 [8], 3000 nM | 0.645 | –
E21 [2], 4.1 nM | – | 0.929
E21 [2], 12.3 nM | – | 1.06
E21 [2], 37 nM | – | 0.919
E21 [2], 111.1 nM | – | 0.966
E21 [2], 333.3 nM | – | 1.03
E21 [2], 1000 nM | – | 0.992
E21 [2], 3000 nM | – | 0.864
E21 [9], 4.1 nM | 0.673 | –
E21 [9], 12.3 nM | 0.75 | –
E21 [9], 37 nM | 0.611 | –
E21 [9], 111.1 nM | 0.334 | –
E21 [9], 333.3 nM | 0.705 | –
E21 [9], 1000 nM | 0.424 | –
E21 [9], 3000 nM | 1.26 | –
E28 [3], 4.1 nM | – | 0.849
E28 [3], 12.3 nM | – | 0.982
E28 [3], 37 nM | – | 0.892
E28 [3], 111.1 nM | – | 0.985
E28 [3], 333.3 nM | – | 0.937
E28 [3], 1000 nM | – | 0.984
E28 [3], 3000 nM | – | 0.902
E28 [10], 4.1 nM | 0.802 | –
E28 [10], 12.3 nM | 0.276 | –
E28 [10], 37 nM | 0.807 | –
E28 [10], 111.1 nM | 0.454 | –
E28 [10], 333.3 nM | 0.891 | –
E28 [10], 1000 nM | 0.259 | –
E28 [10], 3000 nM | 0.736 | –
E31 [4], 4.1 nM | – | 0.953
E31 [4], 12.3 nM | – | 0.893
E31 [4], 37 nM | – | 0.996
E31 [4], 111.1 nM | – | 0.985
E31 [4], 333.3 nM | – | 0.92
E31 [4], 1000 nM | – | 0.979
E31 [4], 3000 nM | – | 0.914
E31 [11], 4.1 nM | 0.521 | –
E31 [11], 12.3 nM | 0.711 | –
E31 [11], 37 nM | 0.705 | –
E31 [11], 111.1 nM | 0.391 | –
E31 [11], 333.3 nM | 0.642 | –
E31 [11], 1000 nM | 0.692 | –
E31 [11], 3000 nM | 0.63 | –
E34 [5], 4.1 nM | – | 0.838
E34 [5], 12.3 nM | – | 0.957
E34 [5], 37 nM | – | 0.811
E34 [5], 111.1 nM | – | 0.957
E34 [5], 333.3 nM | – | 0.867
E34 [5], 1000 nM | – | 0.88
E34 [5], 3000 nM | – | 0.901
E34 [12], 4.1 nM | 1.06 | –
E34 [12], 12.3 nM | 0.852 | –
E34 [12], 37 nM | 0.946 | –
E34 [12], 111.1 nM | 0.273 | –
E34 [12], 333.3 nM | 2.48 | –
E34 [12], 1000 nM | 3.23 | –
E34 [12], 3000 nM | 0.712 | –
E57 [6], 4.1 nM | – | 0.973
E57 [6], 12.3 nM | – | 0.964
E57 [6], 37 nM | – | 0.884
E57 [6], 111.1 nM | – | 0.95
E57 [6], 333.3 nM | – | 0.927
E57 [6], 1000 nM | – | 0.919
E57 [6], 3000 nM | – | 0.966
E57 [13], 4.1 nM | 0.637 | –
E57 [13], 12.3 nM | 0.658 | –
E57 [13], 37 nM | 0.794 | –
E57 [13], 111.1 nM | 0.322 | –
E57 [13], 333.3 nM | 0.595 | –
E57 [13], 1000 nM | 0.802 | –
E57 [13], 3000 nM | 0.686 | –
FT3469 [7], 4.1 nM | – | 0.936
FT3469 [7], 12.3 nM | – | 1.08
FT3469 [7], 37 nM | – | 1.04
FT3469 [7], 111.1 nM | – | 0.924
FT3469 [7], 333.3 nM | – | 1.08
FT3469 [7], 1000 nM | – | 1.08
FT3469 [7], 3000 nM | – | 1.02
FT3469 [14], 4.1 nM | 0.895 | –
FT3469 [14], 12.3 nM | 0.713 | –
FT3469 [14], 37 nM | 0.549 | –
FT3469 [14], 111.1 nM | 0.66 | –
FT3469 [14], 333.3 nM | 0.495 | –
FT3469 [14], 1000 nM | 0.637 | –
FT3469 [14], 3000 nM | 0.793 | –

O=[N+]([O-])c1ccc2c(c1)S(=O)(=O)C=C2 [Stattic]
Details | phenotypic distance | surviving fraction
E13 [1], 4.11523 nM | – | 0.862
E13 [1], 12.34567901 nM | – | 0.789
E13 [1], 37.037 nM | – | 0.891
E13 [1], 111.1111111 nM | – | 0.753
E13 [1], 333.333 nM | – | 0.472
E13 [1], 1000 nM | – | 0.0609
E13 [1], 3000 nM | – | 0.0209
E13 [8], 4.11523 nM | 0.979 | –
E13 [8], 12.34567901 nM | 0.957 | –
E13 [8], 37.037 nM | 0.849 | –
E13 [8], 111.1111111 nM | 1.68 | –
E13 [8], 333.333 nM | 3.33 | –
E13 [8], 1000 nM | 8.57 | –
E13 [8], 3000 nM | 12.1 | –
E21 [2], 4.11523 nM | – | 0.828
E21 [2], 12.34567901 nM | – | 0.855
E21 [2], 37.037 nM | – | 0.849
E21 [2], 111.1111111 nM | – | 0.728
E21 [2], 333.333 nM | – | 0.517
E21 [2], 1000 nM | – | 0.0242
E21 [2], 3000 nM | – | 0.00527
E21 [9], 4.11523 nM | 1.03 | –
E21 [9], 12.34567901 nM | 1.19 | –
E21 [9], 37.037 nM | 0.697 | –
E21 [9], 111.1111111 nM | 1.45 | –
E21 [9], 333.333 nM | 2.92 | –
E21 [9], 1000 nM | 11.2 | –
E21 [9], 3000 nM | 10.4 | –
E28 [3], 4.11523 nM | – | 1.06
E28 [3], 12.34567901 nM | – | 0.809
E28 [3], 37.037 nM | – | 0.932
E28 [3], 111.1111111 nM | – | 0.745
E28 [3], 333.333 nM | – | 0.566
E28 [3], 1000 nM | – | 0.0457
E28 [3], 3000 nM | – | 0.00486
E28 [10], 4.11523 nM | 0.371 | –
E28 [10], 12.34567901 nM | 0.758 | –
E28 [10], 37.037 nM | 0.541 | –
E28 [10], 111.1111111 nM | 0.984 | –
E28 [10], 333.333 nM | 1.97 | –
E28 [10], 1000 nM | 7.45 | –
E28 [10], 3000 nM | 19.2 | –
E31 [4], 4.11523 nM | – | 0.993
E31 [4], 12.34567901 nM | – | 0.809
E31 [4], 37.037 nM | – | 0.852
E31 [4], 111.1111111 nM | – | 0.608
E31 [4], 333.333 nM | – | 0.395
E31 [4], 1000 nM | – | 0.00296
E31 [4], 3000 nM | – | 0.00296
E31 [11], 4.11523 nM | 0.51 | –
E31 [11], 12.34567901 nM | 0.69 | –
E31 [11], 37.037 nM | 0.645 | –
E31 [11], 111.1111111 nM | 1.51 | –
E31 [11], 333.333 nM | 3.02 | –
E31 [11], 1000 nM | 11.5 | –
E31 [11], 3000 nM | 12.4 | –
E34 [5], 4.11523 nM | – | 0.907
E34 [5], 12.34567901 nM | – | 0.804
E34 [5], 37.037 nM | – | 0.719
E34 [5], 111.1111111 nM | – | 0.708
E34 [5], 333.333 nM | – | 0.568
E34 [5], 1000 nM | – | 0.223
E34 [5], 3000 nM | – | 0.00905
E34 [12], 4.11523 nM | 0.778 | –
E34 [12], 12.34567901 nM | 2.75 | –
E34 [12], 37.037 nM | 1.33 | –
E34 [12], 111.1111111 nM | 1.29 | –
E34 [12], 333.333 nM | 1.83 | –
E34 [12], 1000 nM | 6.7 | –
E34 [12], 3000 nM | 11.7 | –
E57 [6], 4.11523 nM | – | 0.876
E57 [6], 12.34567901 nM | – | 0.843
E57 [6], 37.037 nM | – | 0.926
E57 [6], 111.1111111 nM | – | 0.848
E57 [6], 333.333 nM | – | 0.631
E57 [6], 1000 nM | – | 0.166
E57 [6], 3000 nM | – | 0.0847
E57 [13], 4.11523 nM | 1.16 | –
E57 [13], 12.34567901 nM | 1.21 | –
E57 [13], 37.037 nM | 0.778 | –
E57 [13], 111.1111111 nM | 1.69 | –
E57 [13], 333.333 nM | 2.66 | –
E57 [13], 1000 nM | 6.04 | –
E57 [13], 3000 nM | 6.85 | –
FT3469 [7], 4.11523 nM | – | 0.815
FT3469 [7], 12.34567901 nM | – | 0.831
FT3469 [7], 37.037 nM | – | 0.86
FT3469 [7], 111.1111111 nM | – | 0.73
FT3469 [7], 333.333 nM | – | 0.627
FT3469 [7], 1000 nM | – | 0.263
FT3469 [7], 3000 nM | – | 0.0263
FT3469 [14], 4.11523 nM | 1.08 | –
FT3469 [14], 12.34567901 nM | 1.39 | –
FT3469 [14], 37.037 nM | 0.934 | –
FT3469 [14], 111.1111111 nM | 1.86 | –
FT3469 [14], 333.333 nM | 1.92 | –
FT3469 [14], 1000 nM | 8.18 | –
FT3469 [14], 3000 nM | 12.6 | –
